Measured values as given in US20240207302A1, “ANTIVIRAL COMPOUNDS, METHODS FOR THE MANUFACTURING OF COMPOUNDS, ANTIVIRAL PHARMACEUTICAL COMPOSITION, USE OF THE COMPOUNDS AND METHOD FOR THE ORAL TREATMENT OF CORONAVIRUS INFECTION AND RELATED DISEASES THEREOF” (priority 2021, published 2024).

Columns and labels:
[1] = test system: mouse bone marrow polychromatic erythrocytes; assay: Micronucleus test in mouse bone marrow; format: in vivo; settings: mice
Protocol: The ratio of polychromatic to normochromatic erythrocytes and the count of micronuclei were determined. This assay was conducted in compliance with the GLP principles.

[2] = test system: Salmonella typhimirium TA 97a, TA 98, TA 100, TA 102 and TA 1535; assay: Bacterial reverse mutation (Ames) test

c1coc(CNc2ncnc3[nH]cnc23)c1 [MB-905, kinetin]
MNPCE/4,000 PCE (Mean ± S.D.) ([1]; 32 mg/Kg p.o.): 8.50 ± 4.50
MNPCE/4,000 PCE (Mean ± S.D.) ([1]; 125 mg/Kg p.o.): 8.50 ± 3.81
MNPCE/4,000 PCE (Mean ± S.D.) ([1]; 500 mg/Kg p.o.): 9.00 ± 2.45
Mutagenicity ([2]; TA 97a +S9, 8 μg/mL): −
Mutagenicity ([2]; TA 97a +S9, 40 μg/mL): −
Mutagenicity ([2]; TA 97a +S9, 200 μg/mL): −
Mutagenicity ([2]; TA 97a +S9, 1,000 μg/mL): −
Mutagenicity ([2]; TA 97a +S9, 5,000 μg/mL): −
Mutagenicity ([2]; TA 97a −S9, 8 μg/mL): −
Mutagenicity ([2]; TA 97a −S9, 40 μg/mL): −
Mutagenicity ([2]; TA 97a −S9, 200 μg/mL): −
Mutagenicity ([2]; TA 97a −S9, 1,000 μg/mL): −
Mutagenicity ([2]; TA 97a −S9, 5,000 μg/mL): −
Mutagenicity ([2]; TA 98 +S9, 8 μg/mL): −
Mutagenicity ([2]; TA 98 +S9, 40 μg/mL): −
Mutagenicity ([2]; TA 98 +S9, 200 μg/mL): −
Mutagenicity ([2]; TA 98 +S9, 1,000 μg/mL): −
Mutagenicity ([2]; TA 98 +S9, 5,000 μg/mL): −
Mutagenicity ([2]; TA 98 −S9, 8 μg/mL): −
Mutagenicity ([2]; TA 98 −S9, 40 μg/mL): −
Mutagenicity ([2]; TA 98 −S9, 200 μg/mL): −
Mutagenicity ([2]; TA 98 −S9, 1,000 μg/mL): −
Mutagenicity ([2]; TA 98 −S9, 5,000 μg/mL): −
Mutagenicity ([2]; TA 100 +S9, 8 μg/mL): −
Mutagenicity ([2]; TA 100 +S9, 40 μg/mL): −
Mutagenicity ([2]; TA 100 +S9, 200 μg/mL): −
Mutagenicity ([2]; TA 100 +S9, 1,000 μg/mL): −
Mutagenicity ([2]; TA 100 +S9, 5,000 μg/mL): −
Mutagenicity ([2]; TA 100 −S9, 8 μg/mL): −
Mutagenicity ([2]; TA 100 −S9, 40 μg/mL): −
Mutagenicity ([2]; TA 100 −S9, 200 μg/mL): −
Mutagenicity ([2]; TA 100 −S9, 1,000 μg/mL): −
Mutagenicity ([2]; TA 100 −S9, 5,000 μg/mL): −
Mutagenicity ([2]; TA 102 +S9, 8 μg/mL): −
Mutagenicity ([2]; TA 102 +S9, 40 μg/mL): −
Mutagenicity ([2]; TA 102 +S9, 200 μg/mL): −
Mutagenicity ([2]; TA 102 +S9, 1,000 μg/mL): −
Mutagenicity ([2]; TA 102 +S9, 5,000 μg/mL): −
Mutagenicity ([2]; TA 102 −S9, 8 μg/mL): −
Mutagenicity ([2]; TA 102 −S9, 40 μg/mL): −
Mutagenicity ([2]; TA 102 −S9, 200 μg/mL): −
Mutagenicity ([2]; TA 102 −S9, 1,000 μg/mL): −
Mutagenicity ([2]; TA 102 −S9, 5,000 μg/mL): −
Mutagenicity ([2]; TA 1535 +S9, 8 μg/mL): −
Mutagenicity ([2]; TA 1535 +S9, 40 μg/mL): −
Mutagenicity ([2]; TA 1535 +S9, 200 μg/mL): −
Mutagenicity ([2]; TA 1535 +S9, 1,000 μg/mL): −
Mutagenicity ([2]; TA 1535 +S9, 5,000 μg/mL): −
Mutagenicity ([2]; TA 1535 −S9, 8 μg/mL): −
Mutagenicity ([2]; TA 1535 −S9, 40 μg/mL): −
Mutagenicity ([2]; TA 1535 −S9, 200 μg/mL): −
Mutagenicity ([2]; TA 1535 −S9, 1,000 μg/mL): −
Mutagenicity ([2]; TA 1535 −S9, 5,000 μg/mL): −
mutagenic activity in the reverse mutation test ([2]; all strains, absence and presence of S9): no mutagenic activity
